Assay results published in the supplement of paper PMC10307832.

What was measured:
Assay in all cases: relative viability (nuclei count vs DMSO), 5 days (fraction); higher = more cells survive
AZD5582 + Foretinib = compound: C[C@@H](C(=O)N[C@@H](C1CCCCC1)C(=O)N2CCC[C@H]2C(=O)N[C@@H]3[C@@H](CC4=CC=CC=C34)OCC#CC#CCO[C@@H]5CC6=CC=CC=C6[C@@H]5NC(=O)[C@@H]7CCCN7C(=O)[C@H](C8CCCCC8)NC(=O)[C@H](C)NC)NC [AZD5582] + COc1cc2c(Oc3ccc(NC(=O)C4(C(=O)Nc5ccc(F)cc5)CC4)cc3F)ccnc2cc1OCCCN1CCOCC1 [Foretinib] (partner 0.25 µM)
Summary of the method: (§1)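 Lung cancer cell lines in 1536-well plates were dosed by pin tool the day after seeding, either with one drug alone or with a fixed anchor-drug dose plus five library-drug doses (not always all listed) in √10 steps. After 5 days, cells were fixed and their nuclei stained in one step (final 0.05% Triton X-100, 1% formaldehyde, 1 ug/ml Hoechst), then counted on 4× images. Relative viability is the nuclei count in treated wells divided by that in vehicle wells. Values are medians of duplicate plates.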

AZD5582 + Crizotinib = compound: C[C@@H](C(=O)N[C@@H](C1CCCCC1)C(=O)N2CCC[C@H]2C(=O)N[C@@H]3[C@@H](CC4=CC=CC=C34)OCC#CC#CCO[C@@H]5CC6=CC=CC=C6[C@@H]5NC(=O)[C@@H]7CCCN7C(=O)[C@H](C8CCCCC8)NC(=O)[C@H](C)NC)NC [AZD5582] + C[C@@H](Oc1cc(-c2cnn(C3CCNCC3)c2)cnc1N)c1c(Cl)ccc(F)c1Cl [Crizotinib] (partner 1 µM)
Summary of the method: as §1

[1] = compound: Cn1nnc2c(C(N)=O)ncn2c1=O [Temozolomide] + CC(=O)Nc1cccc(-n2c(=O)n(C3CC3)c(=O)c3c(Nc4ccc(I)cc4F)n(C)c(=O)c(C)c32)c1 [Trametinib] (partner 0.02 µM)
Summary of the method: as §1

[2] = compound: Cn1nnc2c(C(N)=O)ncn2c1=O [Temozolomide] + CS(=O)(=O)N1CCN(Cc2cc3nc(-c4cccc5[nH]ncc45)nc(N4CCOCC4)c3s2)CC1 [Pictilisib] (partner 1 µM)
Summary of the method: as §1

NCI-H727
relative viability (AZD5582 + Foretinib; first compound 0.001581 µM): 0.867 | relative viability (AZD5582 + Foretinib; first compound 0.005 µM): 1.03 | relative viability (AZD5582 + Foretinib; first compound 0.01581 µM): 1.01 | relative viability (AZD5582 + Foretinib; first compound 0.05 µM): 0.825 | relative viability (AZD5582 + Crizotinib; first compound 0.001581 µM): 0.762 | relative viability (AZD5582 + Crizotinib; first compound 0.005 µM): 0.896 | relative viability (AZD5582 + Crizotinib; first compound 0.01581 µM): 0.749 | relative viability (AZD5582 + Crizotinib; first compound 0.05 µM): 0.721 | relative viability ([1]; first compound 0.6325 µM): 0.426 | relative viability ([1]; first compound 2 µM): 0.397 | relative viability ([1]; first compound 6.325 µM): 0.435 | relative viability ([1]; first compound 20 µM): 0.403 | relative viability ([2]; first compound 0.2 µM): 0.324 | relative viability ([2]; first compound 0.6325 µM): 0.316 | relative viability ([2]; first compound 2 µM): 0.364 | relative viability ([2]; first compound 6.325 µM): 0.286 | relative viability ([2]; first compound 20 µM): 0.371

NCI-H520
relative viability (AZD5582 + Foretinib; first compound 0.001581 µM): 0.651 | relative viability (AZD5582 + Foretinib; first compound 0.005 µM): 0.777 | relative viability (AZD5582 + Foretinib; first compound 0.01581 µM): 0.81 | relative viability (AZD5582 + Foretinib; first compound 0.05 µM): 0.697 | relative viability (AZD5582 + Crizotinib; first compound 0.001581 µM): 0.743 | relative viability (AZD5582 + Crizotinib; first compound 0.005 µM): 0.709 | relative viability (AZD5582 + Crizotinib; first compound 0.01581 µM): 0.729 | relative viability (AZD5582 + Crizotinib; first compound 0.05 µM): 0.773 | relative viability ([1]; first compound 0.2 µM): 0.715 | relative viability ([1]; first compound 0.6325 µM): 0.717 | relative viability ([1]; first compound 2 µM): 0.676 | relative viability ([1]; first compound 6.325 µM): 0.683 | relative viability ([1]; first compound 20 µM): 0.597 | relative viability ([2]; first compound 0.2 µM): 0.243 | relative viability ([2]; first compound 0.6325 µM): 0.304 | relative viability ([2]; first compound 2 µM): 0.312 | relative viability ([2]; first compound 6.325 µM): 0.305 | relative viability ([2]; first compound 20 µM): 0.326

NCI-H1734
relative viability (AZD5582 + Foretinib; first compound 0.001581 µM): 0.814 | relative viability (AZD5582 + Foretinib; first compound 0.005 µM): 0.892 | relative viability (AZD5582 + Foretinib; first compound 0.01581 µM): 0.968 | relative viability (AZD5582 + Foretinib; first compound 0.05 µM): 1.11 | relative viability (AZD5582 + Crizotinib; first compound 0.001581 µM): 0.662 | relative viability (AZD5582 + Crizotinib; first compound 0.005 µM): 0.717 | relative viability (AZD5582 + Crizotinib; first compound 0.01581 µM): 0.682 | relative viability (AZD5582 + Crizotinib; first compound 0.05 µM): 0.746 | relative viability ([1]; first compound 0.2 µM): 0.722 | relative viability ([1]; first compound 0.6325 µM): 0.694 | relative viability ([1]; first compound 2 µM): 0.661 | relative viability ([1]; first compound 6.325 µM): 0.678 | relative viability ([1]; first compound 20 µM): 0.692 | relative viability ([2]; first compound 0.2 µM): 0.508 | relative viability ([2]; first compound 0.6325 µM): 0.418 | relative viability ([2]; first compound 2 µM): 0.475 | relative viability ([2]; first compound 6.325 µM): 0.429 | relative viability ([2]; first compound 20 µM): 0.426

A-427
relative viability (AZD5582 + Foretinib; first compound 0.001581 µM): 0.986 | relative viability (AZD5582 + Foretinib; first compound 0.005 µM): 0.881 | relative viability (AZD5582 + Foretinib; first compound 0.01581 µM): 1.09 | relative viability (AZD5582 + Foretinib; first compound 0.05 µM): 0.769 | relative viability (AZD5582 + Crizotinib; first compound 0.001581 µM): 0.623 | relative viability (AZD5582 + Crizotinib; first compound 0.005 µM): 0.751 | relative viability (AZD5582 + Crizotinib; first compound 0.01581 µM): 0.97 | relative viability (AZD5582 + Crizotinib; first compound 0.05 µM): 0.618 | relative viability ([1]; first compound 0.2 µM): 0.807 | relative viability ([1]; first compound 0.6325 µM): 0.711 | relative viability ([1]; first compound 2 µM): 0.69 | relative viability ([1]; first compound 6.325 µM): 0.502 | relative viability ([1]; first compound 20 µM): 0.458 | relative viability ([2]; first compound 0.2 µM): 0.816 | relative viability ([2]; first compound 0.6325 µM): 0.733 | relative viability ([2]; first compound 2 µM): 0.797 | relative viability ([2]; first compound 6.325 µM): 0.417 | relative viability ([2]; first compound 20 µM): 0.329
